Consider six compounds from patent US20210317109A1, “TRICYCLIC SUBSTITUTED PIPERIDINE DIONE COMPOUND” (MEDSHINE DISCOVERY INC., priority 2018, published 2021).

Structures can show the parent of a compound that is named as a salt.

Series [1] in a line: Pharmacokinetic properties of test compound in mice (oral). It is filed as in vivo, C57BL male mice. As to conditions: for oral plasma systemic exposures (AUC0-inf), in words / Area under the drug-time curve (0-inf) / Peak concentration / Time to peak: mice; for Area under the drug-time curve (0-inf) / Peak concentration / Time to peak: oral 10 mg/kg, plasma; for pharmacokinetic properties, in words: rodent mice. The text has this: In this study, C57BL male mice were selected as the test animals. A LC-MS/MS method was used to quantitatively determine the drug concentration in the plasma after oral administration of the test compound and the reference compound, to evaluate the pharmacokinetic profile of the test compound in mice.
C57Balb/c (C57) mice (male, 20-30 g, 7-10 weeks old, Beijing Vital River or Shanghai SLAC).
A clear solution or suspension of the test compound was administrated to C57 mice (fasted overnight) by oral gavage. Blood was collected from jugular vein at pre-dose and 0.5, 1, 2, 4, 6, 8, 24 hours post-dose, the collected blood samples were placed in an anticoagulant tube (Jiangsu Kangjian Medical Co., Ltd.) supplemented with EDTA-K2, and the mixture was vortexed and centrifuged at 13000 rpm for 10 minutes. The LC-MS/MS method was used to determine the plasma concentration of test compounds, and the relevant pharmacokinetic parameters were calculated using non-compartmental model linear logarithmic trapezoidal method by WinNonlinTM Version 6.3 (Pharsight, Mountain View, Calif.).

The next series deals with DOHH2 cell line. As to the kind of experiment: Anti-proliferative effect in lymphoma cell line DOHH2 (CellTiter-Glo). It is filed as cell-based. To be noted: Homo sapiens, DOHH-2, 96 h; incubate with the compound for 4 days. The method, then: (§1) Experiment object: In this experiment, the inhibitory effects of the test compounds on cell proliferation in the diffuse large B-cell lymphoma cell lines OCI-LY10 and DOHH2, and the mantle cell lymphoma cell line Mino were tested.
(§2) The tumor cell lines were cultured in an incubator at 37° C. and 5% CO2 under the above-mentioned culture conditions. The cells were passaged regularly, and cells in the logarithmic growth phase were taken for planting.
(§3) (1). The cells were stained with trypan blue and live cells were counted.
(§4) (2). The cell concentration was adjusted to an appropriate concentration.
(§5) (3). 90 μL of cell suspension was added to each well of the culture plate as shown in the table above, and cell-free culture solution was added to the blank control well.
(§6) (4). The culture plates were incubated overnight at 37° C., 5% CO2, and 100% relative humidity in an incubator.
(§7) The mother liquor storage plate with a compound concentration of 400 times the working concentration of the compound was prepared: The compound was gradually diluted with DMSO from the highest concentration to the lowest concentration. The compound was freshly formulated when use every time.
(§8) (1). Formulation of a working solution with a compound concentration of […] the working concentration of the compound: 76 μL of cell culture solution was added to a 96-well plate with a V-shaped bottom, and 4 μL of the compound was pipetted from the mother liquor storage plate with a compound concentration of […] the working concentration of the compound to the cell culture solution of the 96-well plate. 4 μL of DMSO was added to the vehicle control and blank control. After adding the compound or DMSO, a multi-channel pipette was used for pipetting and mixing well. […]
(§9) The following steps followed the instructions of Promega CellTiter-Glo Luminescence Cell Viability Detection Kit (Promega-G7573). […]
(§10) (8). The culture plates were left at room temperature for 10 minutes to stabilize the luminescence signal.
(§11) (9). The luminous signal was detected on the 2104 EnVision plate reader. […]

Another series has as its system OCI-LY10 cell line. As to the kind of experiment: Anti-proliferative effect in lymphoma cell line OCI-LY10 (CellTiter-Glo). The series is classed as cell-based. To be noted: Homo sapiens, OCI-Ly10, 120 h; incubate with the compound for 5 days. As for the experimental part: as §1, §2, §3, §4, §5
(4). The culture plates were incubated overnight at 37° C., 5% CO2, and 100% relative humidity in an incubator. […]
as §9, §10, §11

For series [2], the system named is human lymphoma OCI-LY10 cells subcutaneous xenograft tumor. As for the experimental part:
Cells culture: Human lymphoma OCI-LY10 cells (National Cancer Institute) were cultured in a monolayer in vitro. The culture conditions were RPMI-1640 medium with 10% fetal bovine serum, 100 U/mL penicillin and […] streptomycin, 37° C., 5% CO2 incubator culture. Conventional digestion treatment with pancreatin-EDTA for passage was carried out twice a week. When the cell saturation was 80% to 90%, and the number reached the requirement, the cells were collected, counted and inoculated.
Animal: CB-17 SCID mouse, female, 6-8 weeks old, weighing 18-22 grams. Protocols:
0.2 mL (10×10^6 cells) of OCI-LY10 cells (with matrigel in a volume ratio of 1:1) were subcutaneously inoculated on the right back of each mouse. The grouping and administration were started when the average tumor volume reached about 139 mm^3. One dosing cycle was seven days, and the compound was administered once a day with an interval of 24 hours. The test compound was administered orally for a total of four cycles. The dose of the test compound WX002 was 60 mg/kg, the tumor volume was measured twice a week with a two-dimensional caliper, and the volume was measured in cubic millimeters, calculated by the following formula: V =0.5a×b^2, in which a and b were the long diameter and short diameter of the tumor, respectively. The anti-tumor efficacy was determined by dividing average increase of tumor volume of animals treated with the compound by that of untreated animals.

For a further series, the system named is Mino cell line. As to the kind of experiment: Anti-proliferative effect in mantle cell lymphoma cell line Mino (CellTiter-Glo). The series is classed as cell-based. To be noted: Homo sapiens, 96 h, incubate with the compound for 4 days. As for the experimental part: as §1, §2, §3, §4, §5, §6, §7, §8, §9, §10, §11
For orientation: In ATP-based viability assays light output follows the ATP content of the culture.

Setting [3] is: 60 mg/kg oral once a day, Day 27.

The term IC50 denotes the concentration that inhibits the measured activity by half. Read a high IC50 as weaker potency in that assay.

Take `CCOC(=O)Cc1coc2ccc3cc(OCCN(C)C)ccc3c12` [Hydrochloride of WX008]: in series [1], the “oral plasma systemic exposures (AUC0-inf), in words” value (“oral plasma systemic exposures” below) is “higher oral plasma systemic exposures”; the “Area under the drug-time curve (0-inf)” value worked out at 10.27 µM·h; the Peak concentration was determined as 4.88 µM; the Time to peak amounted to 1.00 h. Besides, the “pharmacokinetic properties, in words” value in series [1] is given as “better pharmacokinetic properties”.

Regarding `O=C1CCC(c2coc3ccc4cc(OCCN5CCOCC5)ccc4c23)C(=O)N1` (centres unmarked) [Hydrochloride of WX020], in series [1], the “oral plasma systemic exposures” value is recorded as “higher oral plasma systemic exposures”; the “Area under the drug-time curve (0-inf)” value was found to be 18.38 µM·h; the Peak concentration turned out to be 8.56 µM; the Time to peak is 0.25 h. In addition, the “pharmacokinetic properties, in words” value in series [1] is on record as “better pharmacokinetic properties”.

`O=C1CCC(c2coc3ccc4ccccc4c23)C(=O)N1` (centres unmarked) [WX002] came in with an IC50 in the series with DOHH2 cell line of 0.097 µM. Further, the IC50 with OCI-LY10 cell line was 0.026 µM. In addition, in series [2] (60 mg/kg oral once a day, Day 1 (start of administration)), the “Tumor volume (Day 1)” value is reported as 139 ± 10 mm^3. In series [2] (setting [3]), the “TGI (Day 27)” value was found to be 111% and the “Tumor volume (Day 27)” value is given as 35 ± 10 mm^3. Also, the “effect on the human lymphoma OCI-LY10 in vivo pharmacodynamic model, in words” value in series [2] (mouse, in vivo) was “significant tumor-shrinking effect”. This compound returned an IC50 in the series with Mino cell line of 0.008 µM. In series [1], the “Area under the drug-time curve (0-inf)” value was found to be 2.49 µM·h, the Peak concentration was found to be 2.83 µM and the Time to peak stood at 0.50 h.

For the compound `O=C1CCC(c2coc3ccc4occc4c23)C(=O)N1` (centres unmarked) [WX004], half-maximal inhibition with DOHH2 cell line (IC50) required 0.144 µM. Besides, the IC50 in the series with OCI-LY10 cell line was found to be 0.017 µM. Also, in the series on Mino cell line, the half-maximal inhibitory concentration (IC50) is 0.007 µM. Also, in series [1], the “oral plasma systemic exposures” value was “higher oral plasma systemic exposures”; the “Area under the drug-time curve (0-inf)” value stood at 5.50 µM·h; the Peak concentration worked out at 6.54 µM; the Time to peak is reported as 0.25 h. Also, in series [1], the “pharmacokinetic properties, in words” value is recorded as “better pharmacokinetic properties”.

Take `Cc1cc2c(ccc3occ(C4CCC(=O)NC4=O)c32)o1` (centres unmarked) [WX005]: the results for the IC50 in the series with DOHH2 cell line and in the series with Mino cell line were 0.165 µM and 0.01 µM, respectively.

For `O=C1CCC(c2coc3ccc4[nH]ccc4c23)C(=O)N1` (centres unmarked) [WX007], in series [1], the “oral plasma systemic exposures” value was “higher oral plasma systemic exposures”; the “Area under the drug-time curve (0-inf)” value worked out at 7.79 µM·h; the Peak concentration is 12.95 µM; the Time to peak is recorded as 0.08 h. Further, in series [1], the “pharmacokinetic properties, in words” value is recorded as “better pharmacokinetic properties”.
